In ChEMBL document CHEMBL5046255, “Design and synthesis of dual inhibitors targeting snail and histone deacetylase for the treatment of solid tumour cancer” (Eur J Med Chem, 2022):
Active and inactive are the calls of the source. No cut-off for these calls is given here.

Assays:
A549 = experiment: Antiproliferative activity against human A549 cells assessed as growth inhibition incubated for 72 hrs by luminescence assay; assay type: functional
EKVX = experiment: Antiproliferative activity against human EKVX cells assessed as growth inhibition incubated for 72 hrs by luminescence assay; assay type: functional
NCI-H23 = experiment: Antiproliferative activity against human NCI-H23 cells assessed as growth inhibition incubated for 72 hrs by luminescence assay; assay type: functional
NCI-H322M = experiment: Antiproliferative activity against human NCI-H322M cells assessed as growth inhibition incubated for 72 hrs by luminescence assay; assay type: functional
NCI-H522 = experiment: Antiproliferative activity against human NCI-H522 cells assessed as growth inhibition incubated for 72 hrs by luminescence assay; assay type: functional
COLO 205 = experiment: Antiproliferative activity against human COLO 205 cells assessed as growth inhibition incubated for 72 hrs by luminescence assay; assay type: functional
HCC 2998 = experiment: Antiproliferative activity against human HCC 2998 cells assessed as growth inhibition incubated for 72 hrs by luminescence assay; assay type: functional
HCT-116 = experiment: Antiproliferative activity against human HCT-116 cells assessed as growth inhibition incubated for 72 hrs by luminescence assay; assay type: functional
KM12 = experiment: Antiproliferative activity against human KM12 cells assessed as growth inhibition incubated for 72 hrs by luminescence assay; assay type: functional
SF-268 = experiment: Antiproliferative activity against human SF-268 cells assessed as growth inhibition incubated for 72 hrs by luminescence assay; assay type: functional
SF-295 = experiment: Antiproliferative activity against human SF-295 cells assessed as growth inhibition incubated for 72 hrs by luminescence assay; assay type: functional
SF-539 = experiment: Antiproliferative activity against human SF-539 cells assessed as growth inhibition incubated for 72 hrs by luminescence assay; assay type: functional
SNB-19 = experiment: Antiproliferative activity against human SNB-19 cells assessed as growth inhibition incubated for 72 hrs by luminescence assay; assay type: functional
U-251 = experiment: Antiproliferative activity against human U-251 cells assessed as growth inhibition incubated for 72 hrs by luminescence assay; assay type: functional
DU-145 = experiment: Antiproliferative activity against human DU-145 cells assessed as growth inhibition incubated for 72 hrs by luminescence assay; assay type: functional
Malme-3M = experiment: Antiproliferative activity against human Malme-3M cells assessed as growth inhibition incubated for 72 hrs by luminescence assay; assay type: functional
M14 = experiment: Antiproliferative activity against human M14 cells assessed as growth inhibition incubated for 72 hrs by luminescence assay; assay type: functional
UACC-257 = experiment: Antiproliferative activity against human UACC-257 cells assessed as growth inhibition incubated for 72 hrs by luminescence assay; assay type: functional
UACC-62 = experiment: Antiproliferative activity against human UACC-62 cells assessed as growth inhibition incubated for 72 hrs by luminescence assay; assay type: functional
OVCAR-3 = experiment: Antiproliferative activity against human OVCAR-3 cells assessed as growth inhibition incubated for 72 hrs by luminescence assay; assay type: functional
OVCAR-4 = experiment: Antiproliferative activity against human OVCAR-4 cells assessed as growth inhibition incubated for 72 hrs by luminescence assay; assay type: functional
OVCAR-8 = experiment: Antiproliferative activity against human OVCAR-8 cells assessed as growth inhibition incubated for 72 hrs by luminescence assay; assay type: functional
SK-OV-3 = experiment: Antiproliferative activity against human SK-OV-3 cells assessed as growth inhibition incubated for 72 hrs by luminescence assay; assay type: functional
MCF7 = experiment: Antiproliferative activity against human MCF7 cells assessed as growth inhibition incubated for 72 hrs by luminescence assay; assay type: functional
MDA-MB-231 = experiment: Antiproliferative activity against human MDA-MB-231 cells assessed as growth inhibition incubated for 72 hrs by luminescence assay; assay type: functional
BT-549 = experiment: Antiproliferative activity against human BT-549 cells assessed as growth inhibition incubated for 72 hrs by luminescence assay; assay type: functional
T47D = experiment: Antiproliferative activity against human T47D cells assessed as growth inhibition incubated for 72 hrs by luminescence assay; assay type: functional
A498 = experiment: Antiproliferative activity against human A498 cells assessed as growth inhibition incubated for 72 hrs by luminescence assay; assay type: functional
TK-10 = experiment: Antiproliferative activity against human TK-10 cells assessed as growth inhibition incubated for 72 hrs by luminescence assay; assay type: functional
ACHN = experiment: Antiproliferative activity against human ACHN cells assessed as growth inhibition incubated for 72 hrs by luminescence assay; assay type: functional
Histone deacetylase 8 = Histone deacetylase 8 (Homo sapiens, UniProt Q9BY41); experiment: Inhibition of HDAC8 (unknown origin) using p53 (379 to 382 residues) (RHKK(Ac-AMC) as fluorogenic substrate incubated for 2 hrs by fluorescence based assay
Chain of Histone deacetylase 8 (Q9BY41 whole entry, the tested form may be a part): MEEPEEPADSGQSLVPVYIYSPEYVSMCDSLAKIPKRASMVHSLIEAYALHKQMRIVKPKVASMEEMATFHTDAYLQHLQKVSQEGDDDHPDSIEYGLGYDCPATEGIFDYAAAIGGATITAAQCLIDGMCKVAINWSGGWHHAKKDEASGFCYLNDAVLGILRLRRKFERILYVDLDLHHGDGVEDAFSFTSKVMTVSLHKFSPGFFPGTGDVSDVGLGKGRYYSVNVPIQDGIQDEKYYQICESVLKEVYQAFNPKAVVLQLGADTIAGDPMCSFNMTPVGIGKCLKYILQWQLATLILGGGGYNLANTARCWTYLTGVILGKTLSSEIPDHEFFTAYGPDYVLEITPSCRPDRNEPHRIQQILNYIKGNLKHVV

[1] = molecular target: Histone deacetylase (Homo sapiens) (UniProt Q13547+O15379+Q9UBN7+Q92769+Q9UQL6+Q8WUI4+Q9BY41+Q96DB2+P56524+Q9UKV0+Q969S8); experiment: Inhibition of HDAC in human HCT-116 cells assessed as increase in Ac-H4 expression at 50 nM measured after 24 hrs by western blot analysis; assay type: cell-based
[2] = Metabolic stability in human liver microsomes assessed as half life incubated for 10 mins by LC-MS/MS analysis; assay type: ADME, Microsome
[3] = Metabolic stability in monkey liver microsomes assessed as half life incubated for 10 mins by LC-MS/MS analysis; assay type: ADME, Macaca mulatta, Microsome; conditions: rhesus monkey
[4] = Metabolic stability in rat liver microsomes assessed as half life incubated for 10 mins by LC-MS/MS analysis; assay type: ADME, Microsome
[5] = Metabolic stability in human liver microsomes assessed as intrinsic clearance incubated for 10 mins by LC-MS/MS analysis; assay type: ADME, Microsome; conditions: read-out: CLH
[6] = Metabolic stability in dog liver microsomes assessed as intrinsic clearance incubated for 10 mins by LC-MS/MS analysis; assay type: ADME, Canis lupus familiaris, Microsome; conditions: read-out: CLH
[7] = Metabolic stability in rat liver microsomes assessed as intrinsic clearance incubated for 10 mins by LC-MS/MS analysis; assay type: ADME, Microsome; conditions: read-out: CLH
[8] = Metabolic stability in human plasma assessed as half life at 100 uM measured upto 120 mins by LC-MS/MS analysis; assay type: ADME, cell-free
[9] = Metabolic stability in rat plasma assessed as half life at 100 uM measured upto 120 mins by LC-MS/MS analysis; assay type: ADME, cell-free
[10] = Metabolic stability in rat plasma assessed as parent compound remaining at 100 uM measured after 2 hrs by LC-MS/MS analysis; assay type: ADME, cell-free; conditions: read-out: Stability
[11] = Cmax in Sprague-Dawley rat at 10 mg/kg, po measured up to 24 hrs by LC-MS/MS analysis; assay type: ADME, organism-based; set-up: route oral, dose 10 mg/kg, time <=24; conditions: in vivo
[12] = Clearance in Sprague-Dawley rat at 1 mg/kg, iv measured up to 24 hrs by LC-MS/MS analysis; assay type: ADME, organism-based; conditions: in vivo
[13] = Volume of distribution at steady state in Sprague-Dawley rat at 1 mg/kg, iv measured up to 24 hrs by LC-MS/MS analysis; assay type: ADME, organism-based; conditions: in vivo, read-out: Vdss
[14] = AUC (0 to t) in Sprague-Dawley rat at 1 mg/kg, iv measured up to 24 hrs by LC-MS/MS analysis; assay type: ADME, organism-based; set-up: route intravenous, dose 1 mg/kg, time <=24; conditions: in vivo
[15] = AUC (0 to t) in Sprague-Dawley rat at 10 mg/kg, po measured up to 24 hrs by LC-MS/MS analysis; assay type: ADME, organism-based; set-up: route oral, dose 10 mg/kg, time <=24; conditions: in vivo
[16] = Half life in Sprague-Dawley rat at 1 mg/kg, iv measured up to 24 hrs by LC-MS/MS analysis; assay type: ADME, organism-based; conditions: in vivo

With `Cc1cc(Nc2nc(SCc3ccc(C(=O)Nc4ccc(F)cc4N)cc3)nn3cccc23)n[nH]1` the GI50 (A549) was 0.886 µM, the GI50 (EKVX) was 0.919 µM and the GI50 (NCI-H23) was 0.603 µM. The GI50 (NCI-H322M) was 1.01 µM, the GI50 (NCI-H522) was 0.0488 µM and the GI50 (COLO 205) was 0.296 µM. The GI50 (HCC 2998) was 0.677 µM, the GI50 (HCT-116) was 0.494 µM and the GI50 (KM12) was 0.284 µM. For the same compound, the GI50 (SF-268) was 1.12 µM, the GI50 (SF-295) was 0.354 µM and the GI50 (SF-539) was 0.282 µM. The GI50 (SNB-19) was 0.536 µM, the GI50 (U-251) was 0.343 µM and the GI50 (DU-145) was 0.461 µM. It also gave a GI50 (Malme-3M) of 1.83 µM, a GI50 (M14) of 0.289 µM and a GI50 (UACC-257) of 3.69 µM. It also gave a GI50 (UACC-62) of 0.347 µM, a GI50 (OVCAR-3) of 0.202 µM and a GI50 (OVCAR-4) of 1.66 µM. The GI50 (OVCAR-8) was 0.483 µM, the GI50 (SK-OV-3) was 0.339 µM and the GI50 (MCF7) was 0.0518 µM. It also gave a GI50 (MDA-MB-231) of 0.854 µM, a GI50 (BT-549) of 0.296 µM and a GI50 (T47D) of 1.12 µM. For the same compound, the GI50 (A498) was 0.623 µM, the GI50 (TK-10) was 1.21 µM and the GI50 (ACHN) was 1.24 µM. The IC50 (Histone deacetylase 8) was > 10 µM, the Activity [1] was “Active” and the half-life [2] was 1.1 h. For the same compound, the half-life [3] was 0.463 h, the half-life [4] was 0.21 h and the microsomal CLint [5] was 20.9 µL/min/mg. It also gave a microsomal CLint [6] of 26.6 µL/min/mg, a microsomal CLint [7] of 110 µL/min/mg and a half-life at 100 µM [8] of 5.62 h. For the same compound, the half-life at 100 µM [9] was 8.58 h, the remaining at 2 h, 100 µM [10] was 105% and the Cmax [11] was 6.61 ng/mL. It also gave a clearance [12] of 1.45 L/h/kg, a Vd [13] of 1.06 L/kg and an AUCt [14] of 0.715 µg·h/mL. The AUCt [15] was 0.0521 µg·h/mL and the t1/2 [16] was 0.303 h.
